Measured values as given in paper PMC6540222, “Small Molecule Inhibitors of KDM5 Histone Demethylases Increase the Radiosensitivity of Breast Cancer Cells Overexpressing JARID1B” (Molecules, 2019).
pIC50: −log10 of the molar value.

How the values were obtained:
MCF-7 cells = assay: RNA-seq differential gene expression; type: cell-based, human; conditions: MCF-7 treated with RS3195 10 μM
HeLa cells = test system: HeLa cells; set-up: method as in PMID 24489688; conditions: without affecting methylation of other lysins; cited from earlier work
[1] = test system: γ-H2AX levels in MCF-7 cells; assay: Western blotting of H2AX phosphorylation after irradiation; type: cell-based, human; conditions: RS5033 10 μM, KDOAM-25 0.03 μM
Protocol: Proteins were resolved on a 12% (histones) or 5% (JARID1B) denaturing polyacrylamide gel, using either 4 μg of histone preparation or 40 μg of cell lysate. After electrophoresis, proteins were transferred on a nitrocellulose membrane (Protran™ […] NC, # 10600002, GE Healthcare (Amersham™), Chicago, IL, USA) via wet transfer method using a Bio-Rad tank. Transfer efficiency was verified via ponceau staining (#P7767, Sigma-Aldrich). Filters were blocked with either milk (#70166, Sigma-Aldrich) or bovine serum albumin (#A3069, Sigma-Aldrich) and then hybridized over night at 4 °C in gentle rotation with the following antibodies: rabbit anti-H3K4me3 (1:1000, #39915, Active Motif, RRID:AB_2687512); rabbit-anti-H3K27me3 (1:1000, #9733, Cell Signaling Technology, RRID:AB_2616029); rabbit-anti- H3K9pan-methylated (1:1000, #4473, RRID:AB_10544693); rabbit-anti-H3 ([…], Cat#1791, ABCAM, RRID:AB_302613); rabbit anti-H2AX (1:1000, Cat#7631, Cell Signaling Technology, RRID:AB_10860771), rabbit anti-Phospho-H2AX (1:1000, Cat#9718, Cell Signaling Technology, RRID:AB_2118009), rabbit anti-JARID1B (1:50, Cell Signaling Technology, Cat#3273 RRID: AB_1264191). Goat-anti-Rabbit Horseradish Peroxidase conjugated (1:10,000, #31460, Thermo Fisher Scientific, Waltham, MA, USA RRID:AB_228341) was used as secondary antibody for 1 hour hybridization at room temperature. Blots were scanned and analyzed with a ChemiDoc XRS+ Imaging System (Bio-Rad). The volumes of each band of protein was acquired using Bio-Rad’s ImageLab software by means of volume tools using global quantification. The signal for each protein was normalized to the housekeeping protein and ratios with average control values were determined. For histones as loading control was used either total histone H3 detected by a specific antibody or histone H1 levels by staining the upper part of the gel properly cut before protein transfer on nitrocellulose membrane.

KDM5 enzymes = assay: Enzymatic inhibition assay (Epigenase JARID Demethylase Activity/Inhibition Assay Kit, fluorometric); type: biochemical; conditions: in vitro, toward KDM5 enzymes; This work
Protocol: Inhibition by RS5033 (IC50) was determined by the Epigenase™ JARID Demethylase Activity/Inhibition Assay Kit (Fluorometric) (#P-3083-48 Epigentek, Farmingdale, NY, USA) which is a complete set of optimized reagents, designed for an easy and fast fluorometric measurement of JARID activity or inhibition. The antibody-based, immune-specific method directly detects JARID-converted demethylated products, rather than by- products, in a 96 stripwell microplate format.

Row | log2FoldChange CYP1A1 (MCF-7 cells; gene CYP1A1) | log2FoldChange CYP1B1 (MCF-7 cells; gene CYP1B1) | pIC50 (KDM5 enzymes) | SMILES | log2FoldChange AHRR (MCF-7 cells; gene AHRR) | log2FoldChange RPS3A (MCF-7 cells; gene RPS3A) | log2FoldChange TXNRD1 (MCF-7 cells; gene TXNRD1) | H3K4 demethylation in HeLa cells (HeLa cells) | ɤH2AX increase normalized to the amount of H2AX ([1]; MCF-7, 6 Gy, 4-36 h) | amount of ɤH2AX ([1]; MCF-7, sham-irradiated and irradiated (6 Gy) cells)
1 | 7.446 | 3.42 | – | CCOC(=O)c1cccn1C(=O)c1cccc(NS(=O)(=O)c2ccc(OC)cc2)c1 [RS3195] | 2.438 | 2.088 | 1.608 | decrease H3K4 demethylation | – | –
2 | – | – | 6.00 | CCOC(=O)c1ccccc1C(=O)c1cccc(NS(=O)(=O)c2ccc(OC)cc2)c1 [RS5033] | – | – | – | – | statistically significant at 4 h and 24 h | increases
